Target: T1, ERR1 (also known as ERR-α or ERR-1) (Homo sapiens, UniProt P11474)
T1 sequence (P11474 193-421 limits assumed): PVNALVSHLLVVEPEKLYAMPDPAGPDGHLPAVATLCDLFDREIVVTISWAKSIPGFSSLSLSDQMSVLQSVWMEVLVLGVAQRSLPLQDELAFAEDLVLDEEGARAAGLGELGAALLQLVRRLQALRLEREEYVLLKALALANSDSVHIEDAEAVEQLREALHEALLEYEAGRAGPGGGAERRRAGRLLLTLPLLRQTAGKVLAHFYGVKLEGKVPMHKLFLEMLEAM
Experiment: TR-FRET assay (disruption of co-activator peptide binding to ERR1 LBD)
Assay type: biochemical
Conditions: 6 nM 6His-ERR1LBD, 6 nM GST-SRC-2 peptide; average of 3 independent experiments
Outline: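 His-tagged ERR1 ligand-binding domain and GST-labelled SRC-2 peptide, each 6 nM, equilibrated at 25° C for 4-18 h in Tris pH 8/Hepes/KCl/DTT/delipidated BSA buffer. Compound-induced loss of co-activator binding read as Eu cryptate→XL665 energy transfer; values from hyperbolic curve fits averaged over 3 independent runs.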

| Structure (SMILES) | EC50 [nM] |
| --- | --- |
| CC(=O)NN1C(=O)S/C(=C\c2ccc3c(cnn3Cc3ccc(Cl)cc3C(F)(F)F)c2)C1=O [Compound 356, N-[(5Z)-5-({1-[4-Chloro-2-(trifluoromethyl)benzyl]-1H-indazol-5-yl}methylidene)-2,4-dioxo-1,3-thiazolidin-3-yl]acetamide] | 14 |
| CNN1C(=O)S/C(=C\c2ccc3c(cnn3Cc3ccc(C(F)(F)F)cc3C(F)(F)F)c2)C1=O [Compound 357, (5Z)-5-({1-[2,4-Bis(trifluoromethyl)benzyl]-1H-indazol-5-yl}methylidene)-3-(methylamino)-1,3-thiazolidine-2,4-dione] | 39 |
| CNN1C(=O)S/C(=C\c2ccc3c(cnn3Cc3ccc(Cl)cc3C(F)(F)F)c2)C1=O [Compound 358, (5Z)-5-({1-[4-Chloro-2-(trifluoromethyl)benzyl]-1H-indazol-5-yl}methylidene)-3-(methylamino)-1,3-thiazolidine-2,4-dione] | 22 |
| O=C1S/C(=C\c2ccc3c(cnn3Cc3ccc(Cl)cc3C(F)(F)F)c2)C(=O)N1N1CCOCC1 [Compound 359, (5Z)-5-({1-[4-Chloro-2-(trifluoromethyl)benzyl]-1H-indazol-5-yl}methylidene)-3-morpholin-4-yl-1,3-thiazolidine-2,4-dione] | 26 |
| CS(=O)(=O)NN1C(=O)S/C(=C\c2ccc3c(cnn3Cc3ccc(C(F)(F)F)cc3C(F)(F)F)c2)C1=O [Compound 360, N-[(5Z)-5-({1-[2,4-Bis(trifluoromethyl)benzyl]-1H-indazol-5-yl}methylidene)-2,4-dioxo-1,3-thiazolidin-3-yl]methanesulfonamide] | 26 |
| CS(=O)(=O)NN1C(=O)S/C(=C\c2ccc3c(cnn3Cc3ccc(C#N)cc3C(F)(F)F)c2)C1=O [Compound 362, N-[(5Z)-5-({1-[4-Cyano-2-(trifluoromethyl)benzyl]-1H-indazol-5-yl}methylidene)-2,4-dioxo-1,3-thiazolidin-3-yl]methanesulfonamide] | 308 |
| CS(=O)(=O)NN1C(=O)S/C(=C\c2ccc3c(cnn3Cc3ccc(F)cc3C(F)(F)F)c2)C1=O [Compound 363, N-[(5Z)-5-({1-[4-Fluoro-2-(trifluoromethyl)benzyl]-1H-indazol-5-yl}methylidene)-2,4-dioxo-1,3-thiazolidin-3-yl]methanesulfonamide] | 59 |
| CS(=O)(=O)NN1C(=O)S/C(=C\c2ccc3c(cnn3Cc3ccc(Br)cc3C(F)(F)F)c2)C1=O [Compound 364, N-[(5Z)-5-({1-[4-Bromo-2-(trifluoromethyl)benzyl]-1H-indazol-5-yl}methylidene)-2,4-dioxo-1,3-thiazolidin-3-yl]methanesulfonamide] | 4 |
| Cc1nn(Cc2ccc(Cl)cc2C(F)(F)F)c2ccc(/C=C3\SC(=O)N(NS(C)(=O)=O)C3=O)cc12 [Compound 365, N-[(5Z)-5-({1-[4-Chloro-2-(trifluoromethyl)benzyl]-3-methyl-1H-indazol-5-yl}methylidene)-2,4-dioxo-1,3-thiazolidin-3-yl]methanesulfonamide] | 23 |
| CS(=O)(=O)NN1C(=O)S/C(=C\c2ccc3c(c2)c(Cl)nn3Cc2ccc(Cl)cc2C(F)(F)F)C1=O [Compound 366, N-[(5Z)-5-({3-Chloro-1-[4-chloro-2-(trifluoromethyl)benzyl]-1H-indazol-5-yl}methylidene)-2,4-dioxo-1,3-thiazolidin-3-yl]methanesulfonamide] | 6 |
| CS(=O)(=O)NN1C(=O)S/C(=C\c2ccc3c(c2)c(I)nn3Cc2ccc(Cl)cc2C(F)(F)F)C1=O [Compound 367, N-[(5Z)-5-({1-[4-Chloro-2-(trifluoromethyl)benzyl]-3-iodo-1H-indazol-5-yl}methylidene)-2,4-dioxo-1,3-thiazolidin-3-yl]methanesulfonamide] | 4 |
| CS(=O)(=O)NN1C(=O)S/C(=C\c2ccc3c(c2)c(F)nn3Cc2ccc(Cl)cc2C(F)(F)F)C1=O [Compound 368, N-[(5Z)-5-({1-[4-Chloro-2-(trifluoromethyl)benzyl]-3-fluoro-1H-indazol-5-yl}methylidene)-2,4-dioxo-1,3-thiazolidin-3-yl]methanesulfonamide] | 3 |
| CS(=O)(=O)NN1C(=O)S/C(=C\c2ccc3c(c2)c(C#N)nn3Cc2ccc(C(F)(F)F)cc2C(F)(F)F)C1=O [Compound 369, N-[(5Z)-5-({1-[2,4-Bis(trifluoromethyl)benzyl]-3-cyano-1H-indazol-5-yl}methylidene)-2,4-dioxo-1,3-thiazolidin-3-yl]methanesulfonamide] | 64 |
| CS(=O)(=O)NN1C(=O)S/C(=C\c2ccc3c(cnn3Cc3ccc(Cl)cc3C(F)(F)F)c2F)C1=O [Compound 370, N-[(5Z)-5-({1-[4-Chloro-2-(trifluoromethyl)benzyl]-4-fluoro-1H-indazol-5-yl}methylidene)-2,4-dioxo-1,3-thiazolidin-3-yl]methanesulfonamide] | 48 |
| CS(=O)(=O)NN1C(=O)S/C(=C\c2cc3cnn(Cc4ccc(Cl)cc4C(F)(F)F)c3cc2F)C1=O [Compound 371, N-[(5Z)-5-({1-[4-Chloro-2-(trifluoromethyl)benzyl]-6-fluoro-1H-indazol-5-yl}methylidene)-2,4-dioxo-1,3-thiazolidin-3-yl]methanesulfonamide] | 9 |
| O=C(NN1C(=O)S/C(=C\c2ccc3c(cnn3Cc3ccc(C(F)(F)F)cc3C(F)(F)F)c2)C1=O)C1CC1 [Compound 372, N-[(5Z)-5-({1-[2,4-Bis(trifluoromethyl)benzyl]-1H-indazol-5-yl}methylidene)-2,4-dioxo-1,3-thiazolidin-3-yl]cyclopropanecarboxamide] | 11 |
| O=C(NN1C(=O)S/C(=C\c2ccc3c(cnn3Cc3ccc(Cl)cc3C(F)(F)F)c2)C1=O)C1CC1 [Compound 373, N-[(5Z)-5-({1-[4-Chloro-2-(trifluoromethyl)benzyl]-1H-indazol-5-yl}methylidene)-2,4-dioxo-1,3-thiazolidin-3-yl]cyclopropanecarboxamide] | 7 |
| O=C(CN1C(=O)S/C(=C\c2ccc3c(c2)c(Cl)nn3Cc2ccc(Cl)cc2C(F)(F)F)C1=O)NS(=O)(=O)N1CCCC1 [Compound 375, 2-[(5Z)-5-({3-Chloro-1-[4-chloro-2-(trifluoromethyl)benzyl]-1H-indazol-5-yl}methylidene)-2,4-dioxo-1,3-thiazolidin-3-yl]-N-(pyrrolidin-1-ylsulfonyl)acetamide] | 70 |
| O=C(O)/C=C/CN1C(=O)S/C(=C\c2ccc3c(cnn3Cc3ccc(Cl)cc3C(F)(F)F)c2)C1=O [Compound 376, (2E)-4-[(5Z)-5-({1-[4-Chloro-2-(trifluoromethyl)benzyl]-1H-indazol-5-yl}methylidene)-2,4-dioxo-1,3-thiazolidin-3-yl]but-2-enoic acid] | 65 |
| O=C(O)c1ccc(CN2C(=O)S/C(=C\c3ccc4c(cnn4Cc4ccc(Cl)cc4C(F)(F)F)c3)C2=O)cc1 [Compound 377, 4-{[(5Z)-5-({1-[4-Chloro-2-(trifluoromethyl)benzyl]-1H-indazol-5-yl}methylidene)-2,4-dioxo-1,3-thiazolidin-3-yl]methyl}benzoic acid] | 67 |
| O=C(O)c1cccc(CN2C(=O)S/C(=C\c3ccc4c(cnn4Cc4ccc(Cl)cc4C(F)(F)F)c3)C2=O)c1 [Compound 378, 3-{[(5Z)-5-({1-[4-Chloro-2-(trifluoromethyl)benzyl]-1H-indazol-5-yl}methylidene)-2,4-dioxo-1,3-thiazolidin-3-yl]methyl}benzoic acid] | 66 |
| O=C(O)c1ccccc1CN1C(=O)S/C(=C\c2ccc3c(cnn3Cc3ccc(Cl)cc3C(F)(F)F)c2)C1=O [Compound 379, 2-{[(5Z)-5-({1-[4-Chloro-2-(trifluoromethyl)benzyl]-1H-indazol-5-yl}methylidene)-2,4-dioxo-1,3-thiazolidin-3-yl]methyl}benzoic acid] | 21 |
| O=C(O)c1ccc(CN2C(=O)S/C(=C\c3ccc4c(cnn4Cc4ccc(Cl)cc4C(F)(F)F)c3)C2=O)o1 [Compound 380, 5-{[(5Z)-5-({1-[4-Chloro-2-(trifluoromethyl)benzyl]-1H-indazol-5-yl}methylidene)-2,4-dioxo-1,3-thiazolidin-3-yl]methyl}furan-2-carboxylic acid] | 15 |
| O=C1S/C(=C\c2ccc3c(cnn3Cc3ccc(Cl)cc3C(F)(F)F)c2)C(=O)N1[C@@H]1CCNC[C@H]1F [Compound 381, (5Z)-5-({1-[4-Chloro-2-(trifluoromethyl)benzyl]-1H-indazol-5-yl}methylidene)-3-[(3R,4R)-3-fluoropiperidin-4-yl]-1,3-thiazolidine-2,4-dione] | 28 |
| O=C1S/C(=C\c2ccc3c(cnn3Cc3ccc(Cl)cc3C(F)(F)F)c2)C(=O)N1[C@H]1CCNC[C@@H]1F [Compound 382, (5Z)-5-({1-[4-Chloro-2-(trifluoromethyl)benzyl]-1H-indazol-5-yl}methylidene)-3-[(3S,4S)-3-fluoropiperidin-4-yl]-1,3-thiazolidine-2,4-dione] | 11 |
| O=C1S/C(=C\c2ccc3c(cnn3Cc3ccc(Cl)cc3C(F)(F)F)c2)C(=O)N1CCNS(=O)(=O)CCl [Compound 385, 1-Chloro-N-{2-[(5Z)-5-({1-[4-chloro-2-(trifluoromethyl)benzyl]-1H-indazol-5-yl}methylidene)-2,4-dioxo-1,3-thiazolidin-3-yl]ethyl}methanesulfonamide] | 39 |

— patent publication US8796256B2 (Janssen Pharmaceutica NV, priority 2010, dated 2014)
